{"source": "patent US9217163B2", "about": "(priority 2007, dated 2015)", "key": {"[1]": {"system": "biological systems", "conditions": "Jones and Wood, 1986; cited from earlier work"}, "[2]": {"system": "Clostridium beijerinckii ATCC 10132", "conditions": "butanol 1.5% to 3.5%, 37° C., 144 h", "experimental": "The tolerance was tested in both, the un-optimized AnS medium and optimized AnS medium. The bottles were inoculated with Clostridium beijerinckii ATCC 10132 After inoculation, the medium was incubated at 37° C. for 144 h and the OD at 600 nm was monitored at a regular interval of 12 h."}}, "note": "Like-named read-outs stand apart in the source and are kept apart here.", "data": [{"molecule": "CCCCO", "note": "[butanol, n-butanol]", "values": [{"measurement": "concentration at which butanol is highly toxic to biological systems", "setting": "[1]", "value": 2, "unit": "%"}, {"measurement": "butanol concentration tolerated (growth, OD 600 nm)", "setting": "[2]; optimized AnS medium", "value": "≤ 3.5", "unit": "%"}, {"measurement": "butanol concentration tolerated (growth, OD 600 nm)", "setting": "[2]; un-optimized AnS medium", "value": "up to 3.0%"}]}]}
